According to patent publication US20230295201A1 (Gilead Sciences, Inc., priority 2020, published 2023):
Like-named read-outs stand apart in the source and are kept apart here.

Key:
Format in all cases: cell-based
[1] = system: RSV strain A2; assay: RSV HEp-2 EC50 (infectious cytopathic cell protection assay); settings: read-out: RSV HEp-2 EC50
Method in brief: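 Percent inhibition of RSV-induced cytopathic effect came from remaining cell viability (CellTiter-Glo luminescence) after 4 days at 37° C. Compounds in 3-fold serial dilutions were exposed to an infectious mix of titered A2 virus and HEp-2 cells at 50,000/ml, with 0% and 100% inhibition control standards.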

[2] = system: RSV A2; assay: RSV NHBE EC50 (RSV A2 antiviral assay in normal human bronchial epithelial cells); settings: read-out: RSV NHBE EC50
[3] = system: HRV16; assay: HRV16 HELA EC50 (cytopathic effect in H1-HeLa cells)
Method in brief: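 Read-out is luminescent cell viability (CellTiter-Glo) after 96 h of infection at 33 °C, scaled between uninfected and infected-untreated wells. Before infection with titrated virus, compounds went onto H1-HeLa cells as triplicate 3-fold dilution series.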

[4] = system: DENV2 replicon; assay: DENV-2 Huh-7 Rep EC50 (replicon luminescence); settings: read-out: DENV-2 Huh-7 Rep EC50
Method in brief: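 EC50 derived from luminescence dose-response, normalised to DMSO-only 0% inhibition wells, after 1.5 h with EnduRen substrate. Compounds were first exposed for 48 h at 37° C to DENV2 replicon Huh-7 cells (5,000/well).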

[5] = human respiratory syncytial virus, HEp-2, 96 h, HEp-2 cells, RSV A2, 4 days
[6] = human respiratory syncytial virus, NHBE, 96 h, NHBE cells, RSV A2, 4 days
[7] = 96 h, H1-HeLa cells, 33° C., read-out: HRV16 HELA EC50
[8] = Dengue virus, DENV2, Huh-7, 48 h, Huh-7 replicon cells, 48 hours
[9] = human respiratory syncytial virus, 96 h, HEp-2 cells, RSV A2, 4 days
[10] = human respiratory syncytial virus, 96 h, NHBE cells, RSV A2, 4 days
[11] = H1-HeLa cells, 96 h, 33° C.; read-out: HRV16 HELA EC50
[12] = Dengue virus, DENV2, Huh-7, 48 h

Structure (SMILES)	EC50 [1, 5] [nM]	EC50 [2, 6] [nM]	EC50 [3, 7] [nM]	EC50 [4, 8] [nM]	EC50 [3, 11] [nM]	EC50 [4, 12] [nM]	other results
CCCCCCCCCCCCCCCCCCOC[C@H](COC(=O)C(C)NP(=O)(OC[C@@]1(C#N)O[C@@H](c2ccc3c(N)ncnn23)[C@H](O)[C@@H]1O)Oc1ccccc1)OCc1ccccc1 (stereo partly drawn) [Example 190, (R)-2-(benzyloxy)-3-(octadecyloxy)propyl ((((2R,3S,4R,5S)-5-(4-aminopyrrolo[2,1-f][1,2,4]triazin-7-yl)-2-cyano3,4-dihydroxytetrahydrofuran-2-yl)methoxy)(phenoxy)phosphoryl)alaninate]	136	2060	2640	> 100000			
CCCCCCCCCCCCCCCCCCOC(=O)[C@H](C)NP(=O)(OC[C@@]1(C#N)O[C@@H](c2ccc3c(N)ncnn23)[C@H](O)[C@@H]1O)Oc1ccccc1 (stereo partly drawn) [Example 193, octadecyl ((((2R,3S,4R,5S)-5-(4-aminopyrrolo[2,1-f][1,2,4]triazin-7-yl)-2-cyano-3,4-dihydroxytetrahydrofuran-2-yl)methoxy)(phenoxy)phosphoryl)-L-alaninate]	244	469	750	> 50000			
CCCCCCCCCCCCCCCCOCCCOC(=O)[C@H](C)NP(=O)(OC[C@@]1(C#N)O[C@@H](c2ccc3c(N)ncnn23)[C@H](O)[C@@H]1O)Oc1ccccc1 (stereo partly drawn) [Example 198, 3-(hexadecyloxy)propyl ((((2R,3S,4R,5S)-5-(4-aminopyrrolo[2,1-f][1,2,4]triazin-7-yl)-2-cyano-3,4-dihydroxytetrahydrofuran-2-yl)methoxy)(phenoxy)phosphoryl)alaninate]	618	37	548	39100			
CCCCCCCCCCCCCCCCOC(=O)[C@H](C)NP(=O)(OC[C@@]1(C#N)O[C@@H](c2ccc3c(N)ncnn23)[C@H](O)[C@@H]1O)Oc1ccccc1 (stereo partly drawn) [Example 199, hexadecyl ((((2R,3S,4R,5S)-5-(4-aminopyrrolo[2,1-f][1,2,4]triazin-7-yl)-2-cyano-3,4-dihydroxytetrahydrofuran-2-yl)methoxy)(phenoxy)phosphoryl)-L-alaninate]	1120	33	738	37800			
CCC(CC)COC(=O)[C@H](C)NP(=O)(N[C@@H](C)C(=O)OCC(C)(C)C)OC[C@@]1(C#N)O[C@@H](c2ccc3c(N)ncnn23)[C@H](O)[C@@H]1O (stereo partly drawn) [Example 200, 2-ethylbutyl ((((2R,3S,4R,5S)-5-(4-aminopyrrolo[2,1-f][1,2,4]triazin-7-yl)-2-cyano-3,4-dihydroxytetrahydrofuran-2-yl)methoxy)(((S)-1-(neopentyloxy)-1-oxopropan-2-yl)amino)phosphoryl)-L-alaninate]					5680	> 50000	EC50 [1, 9]: 1400 nM; EC50 [2, 10]: 125 nM
C[C@H](NP(=O)(OCC(F)(F)F)OC[C@@]1(C#N)O[C@@H](c2ccc3c(N)ncnn23)[C@H](O)[C@@H]1O)C(=O)OC1CCCCC1 (stereo partly drawn) [Example 201, cyclohexyl ((((2R,3S,4R,5S)-5-(4-aminopyrrolo[2,1-f][1,2,4]triazin-7-yl)-2-cyano-3,4-dihydroxytetrahydrofuran-2-yl)methoxy)(2,2,2-trifluoroethoxy)phosphoryl)-L-alaninate]					10300	> 50000	EC50 [1, 9]: 2520 nM; EC50 [2, 10]: 3100 nM
C[C@H](NP(=O)(OC[C@@]1(C#N)O[C@@H](c2ccc3c(N)ncnn23)[C@H](O)[C@@H]1O)Oc1ccccc1)C(=O)OC1CCCN(CC(F)(F)F)CC1 (stereo partly drawn) [Example 204, 1-(2,2,2-trifluoroethyl)azepan-4-yl ((((2R,3S,4R,5S)-5-(4-aminopyrrolo[2,1-f][1,2,4]triazin-7-yl)-2-cyano-3,4-dihydroxytetrahydrofuran-2-yl)methoxy)(phenoxy)phosphoryl)alaninate]	463	628	1380	27500			
CC(C)(C)C(=O)OCCNP(=O)(NCCOC(=O)C(C)(C)C)OC[C@@]1(C#N)O[C@@H](c2ccc3c(N)ncnn23)[C@H](O)[C@@H]1O [Example 208]	> 32800	> 4220	> 50000			> 50000	
CCOC(=O)c1ccccc1OP(=O)(OC[C@@]1(C#N)O[C@@H](c2ccc3c(N)ncnn23)[C@H](O)[C@@H]1O)Oc1ccccc1C(=O)OCC [Example 209, ((2R,3S,4R,5S)-5-(4-aminopyrrolo[2,1-f][1,2,4]triazin-7-yl)-2-cyano-3,4-dihydroxytetrahydrofuran-2-yl)methyl bis-2-ethylbenzoate phosphate]						> 50000	EC50 ([1]; human respiratory syncytial virus, HEp-2, 96 h): 1460 nM; EC50 ([2]; human respiratory syncytial virus, NHBE, 96 h): > 5000 nM; EC50 ([3]; 96 h, read-out: HRV16 HELA EC50): 16700 nM
C[C@H](NP(=O)(OC[C@@]1(C#N)O[C@@H](c2ccc3c(N)ncnn23)[C@H](O)[C@@H]1O)Oc1ccccc1)C(=O)OC[C@H]1CC[C@H](N)CC1 (stereo partly drawn) [Example 210, ((1r,4S)-4-aminocyclohexyl)methyl ((((2R,3S,4R,5S)-5-(4-aminopyrrolo[2,1-f][1,2,4]triazin-7-yl)-2-cyano-3,4-dihydroxytetrahydrofuran-2-yl)methoxy)(phenoxy)phosphoryl)-L-alaninate]	1780	3020	27900	> 50000			
CCCCCCCC(=O)Nc1ncnn2c([C@@H]3O[C@](C#N)(CO[P@@](=O)(N[C@@H](C)C(=O)OC4CCCCC4)Oc4ccccc4)[C@@H](O)[C@H]3O)ccc12 [Example 212, Cyclohexyl ((S)-(((2R,3S,4R,5S)-2-cyano-3,4-dihydroxy-5-(4-octanamidopyrrolo[2,1-f][1,2,4]triazin-7-yl)tetrahydrofuran-2-yl)methoxy)(phenoxy)phosphoryl)-L-alaninate]	133	> 5000	670	9770			
C[C@H](NP(=O)(N[C@@H](C)C(=O)OCC1CC1)OC[C@@]1(C#N)O[C@@H](c2ccc3c(N)ncnn23)[C@H](O)[C@@H]1O)C(=O)OCC1CC1 [Example 214, ((2R,3S,4R,5S)-5-(4-aminopyrrolo[2,1-f][1,2,4]triazin-7-yl)-2-cyano-3,4-dihydroxytetrahydrofuran-2-yl)methyl bis-cyclopropylmethyl L-alaninate phosphate]					25800	> 50000	EC50 [1, 9]: 2940 nM; EC50 [2, 10]: 551 nM
CCCCCOC(=O)C[C@H](NP(=O)(OC[C@@]1(C#N)O[C@@H](c2ccc3c(N)ncnn23)[C@H](O)[C@@H]1O)Oc1ccccc1)C(=O)OCCCCC (stereo partly drawn) [Example 215, Dipentyl ((((2R,3S,4R,5S)-5-(4-aminopyrrolo[2,1-f][1,2,4]triazin-7-yl)-2-cyano-3,4-dihydroxytetrahydrofuran-2-yl)methoxy)(phenoxy)phosphoryl)-L-aspartate]	1100	> 3000	3390	44300			
CCCCCOC(=O)C[C@H](N[P@@](=O)(OC[C@@]1(C#N)O[C@@H](c2ccc3c(N)ncnn23)[C@H](O)[C@@H]1O)Oc1ccccc1)C(=O)OCCCCC [Example 216]					32800		EC50 ([1]; HEp-2 cells, RSV A2, 4 days): 4230 nM; EC50 ([2]; NHBE cells, RSV A2, 4 days): > 4390 nM; EC50 ([4]; Huh-7 replicon cells, 48 hours): 33000 nM
CCCCCOC(=O)C[C@H](N[P@](=O)(OC[C@@]1(C#N)O[C@@H](c2ccc3c(N)ncnn23)[C@H](O)[C@@H]1O)Oc1ccccc1)C(=O)OCCCCC [Example 217]					4660		EC50 ([1]; HEp-2 cells, RSV A2, 4 days): 1010 nM; EC50 ([2]; NHBE cells, RSV A2, 4 days): > 3510 nM; EC50 ([4]; Huh-7 replicon cells, 48 hours): 38000 nM
CCCCOC(=O)[C@H](C)NP(=O)(N[C@@H](C)C(=O)OCCCC)OC[C@@]1(C#N)O[C@@H](c2ccc3c(N)ncnn23)[C@H](O)[C@@H]1O [Example 218]					11300	> 50000	EC50 [1, 9]: 1160 nM; EC50 [2, 10]: 280 nM
